Measurements reported in US10968215B2 (SHANGHAI HAIHE PHARMACEUTICAL CO., LTD., priority 2016, dated 2021).

target: PRC2 complex (EZH2 Y641F/EED/SUZ12/RbAp48/AEBP2) (Homo sapiens (Human), UniProt Q15910, Y641F); assay: Activity of a compound to PRC2 complex (EZH2 Y641F), HTRF; details: not given
Sequence (Q15910 whole entry Y641F): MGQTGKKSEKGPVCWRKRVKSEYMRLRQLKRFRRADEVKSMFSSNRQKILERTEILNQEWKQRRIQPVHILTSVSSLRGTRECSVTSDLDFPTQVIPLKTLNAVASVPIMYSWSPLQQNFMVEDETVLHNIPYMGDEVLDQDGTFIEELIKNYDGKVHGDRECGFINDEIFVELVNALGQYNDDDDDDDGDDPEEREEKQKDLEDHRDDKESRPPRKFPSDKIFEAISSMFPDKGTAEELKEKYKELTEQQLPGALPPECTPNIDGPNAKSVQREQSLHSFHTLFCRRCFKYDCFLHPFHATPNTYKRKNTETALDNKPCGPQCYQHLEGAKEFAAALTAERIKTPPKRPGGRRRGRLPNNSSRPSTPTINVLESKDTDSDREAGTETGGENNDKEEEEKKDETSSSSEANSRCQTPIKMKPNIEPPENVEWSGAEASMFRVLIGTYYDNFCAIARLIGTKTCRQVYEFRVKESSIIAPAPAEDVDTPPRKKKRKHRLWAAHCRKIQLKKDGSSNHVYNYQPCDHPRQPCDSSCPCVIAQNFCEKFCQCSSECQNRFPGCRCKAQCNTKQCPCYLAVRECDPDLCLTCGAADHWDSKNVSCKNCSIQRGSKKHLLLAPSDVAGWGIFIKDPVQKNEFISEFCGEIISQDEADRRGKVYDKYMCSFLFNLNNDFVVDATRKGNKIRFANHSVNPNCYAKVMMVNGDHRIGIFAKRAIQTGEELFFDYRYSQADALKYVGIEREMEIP
Sequence (O75530 whole entry partner): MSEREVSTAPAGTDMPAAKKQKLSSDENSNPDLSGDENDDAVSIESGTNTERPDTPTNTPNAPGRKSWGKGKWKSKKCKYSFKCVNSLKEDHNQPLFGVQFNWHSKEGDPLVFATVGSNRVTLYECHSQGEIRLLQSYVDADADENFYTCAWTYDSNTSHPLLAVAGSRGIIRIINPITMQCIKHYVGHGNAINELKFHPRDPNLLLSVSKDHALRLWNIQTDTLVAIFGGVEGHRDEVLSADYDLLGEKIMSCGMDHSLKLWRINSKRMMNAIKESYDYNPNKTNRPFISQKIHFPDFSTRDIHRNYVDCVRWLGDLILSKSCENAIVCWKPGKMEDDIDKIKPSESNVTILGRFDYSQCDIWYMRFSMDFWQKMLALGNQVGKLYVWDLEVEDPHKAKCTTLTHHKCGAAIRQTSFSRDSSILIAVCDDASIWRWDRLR
Sequence (Q15022 whole entry partner): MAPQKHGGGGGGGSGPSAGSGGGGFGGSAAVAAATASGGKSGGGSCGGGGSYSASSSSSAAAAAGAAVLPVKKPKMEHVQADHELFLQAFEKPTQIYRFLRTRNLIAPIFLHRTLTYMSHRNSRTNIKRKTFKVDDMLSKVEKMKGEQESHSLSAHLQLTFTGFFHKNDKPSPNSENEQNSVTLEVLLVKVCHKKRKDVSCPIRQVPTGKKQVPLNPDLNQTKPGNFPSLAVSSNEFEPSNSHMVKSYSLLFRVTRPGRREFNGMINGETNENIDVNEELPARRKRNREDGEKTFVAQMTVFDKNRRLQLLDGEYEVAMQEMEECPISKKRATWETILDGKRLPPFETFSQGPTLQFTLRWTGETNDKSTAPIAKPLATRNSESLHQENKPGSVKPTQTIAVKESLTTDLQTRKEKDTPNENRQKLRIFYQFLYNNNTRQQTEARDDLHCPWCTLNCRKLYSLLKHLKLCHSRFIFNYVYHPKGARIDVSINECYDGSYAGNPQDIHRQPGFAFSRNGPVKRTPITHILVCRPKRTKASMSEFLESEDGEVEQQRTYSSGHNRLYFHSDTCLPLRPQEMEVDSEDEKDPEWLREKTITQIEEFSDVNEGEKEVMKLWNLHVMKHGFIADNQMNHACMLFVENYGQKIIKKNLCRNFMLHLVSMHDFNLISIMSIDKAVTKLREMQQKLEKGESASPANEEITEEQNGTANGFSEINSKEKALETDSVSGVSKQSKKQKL
Sequence (Q09028 whole entry partner): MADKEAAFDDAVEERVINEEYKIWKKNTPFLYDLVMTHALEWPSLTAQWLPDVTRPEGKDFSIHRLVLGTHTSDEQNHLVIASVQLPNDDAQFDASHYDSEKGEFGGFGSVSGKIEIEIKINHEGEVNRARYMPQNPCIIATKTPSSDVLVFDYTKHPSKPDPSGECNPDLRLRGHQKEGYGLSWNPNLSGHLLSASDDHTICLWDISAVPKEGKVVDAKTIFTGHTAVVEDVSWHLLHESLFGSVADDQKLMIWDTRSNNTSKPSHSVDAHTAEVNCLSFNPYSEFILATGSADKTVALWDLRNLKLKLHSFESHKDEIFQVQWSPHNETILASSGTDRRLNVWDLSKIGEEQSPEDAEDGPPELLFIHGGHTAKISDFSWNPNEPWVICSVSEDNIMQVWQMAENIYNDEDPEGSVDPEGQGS
Sequence (Q6ZN18 whole entry partner): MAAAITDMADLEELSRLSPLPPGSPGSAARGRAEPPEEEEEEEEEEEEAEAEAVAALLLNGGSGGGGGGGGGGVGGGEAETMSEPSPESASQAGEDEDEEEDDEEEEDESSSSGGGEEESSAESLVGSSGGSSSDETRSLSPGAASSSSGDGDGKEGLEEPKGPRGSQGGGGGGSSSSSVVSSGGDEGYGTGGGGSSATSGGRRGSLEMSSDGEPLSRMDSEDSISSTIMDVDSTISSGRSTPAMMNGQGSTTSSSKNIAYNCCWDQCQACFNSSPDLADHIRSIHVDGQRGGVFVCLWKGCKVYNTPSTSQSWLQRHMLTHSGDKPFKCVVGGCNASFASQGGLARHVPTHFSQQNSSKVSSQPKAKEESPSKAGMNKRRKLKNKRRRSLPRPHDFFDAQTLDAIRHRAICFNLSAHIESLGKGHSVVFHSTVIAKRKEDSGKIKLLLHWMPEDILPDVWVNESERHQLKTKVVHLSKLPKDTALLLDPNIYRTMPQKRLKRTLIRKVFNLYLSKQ

`Cc1cc(=O)c(CNC(=O)c2cc3c(-c4ccc(N)nc4)ccn3c(C(C)N3CCN(CC(F)(F)F)CC3)c2C)c(C)[nH]1` (stereo not drawn) [Compound 184, 1-(6-aminopyridin-3-yl)-N-((2,6-dimethyl-4-oxo-1,4-dihydropyridin-3-yl)methyl)-6-methyl-5-(1-(4-(2,2,2-trifluoroethyl)piperazin-1-yl)ethyl)indolizine-7-carboxamide] and `CCCc1cc(C)[nH]c(=O)c1CNC(=O)c1cc2c(-c3ccc(N)nc3)ccn2c(C(C)N2CCN(CC(F)(F)F)CC2)c1C` (stereo not drawn) [Compound 185, 1-(6-aminopyridin-3-yl)-6-methyl-N-((6-methyl-2-oxo-4-propyl-1,2-dihydropyridine-3-yl)methyl)-5-(1-(4-(2,2,2-trifluoroethyl)piperazin-1-yl)ethyl)indolizine-7-carboxamide] cannot be ordered by IC50: less than 100 nM for the first, less than 100 nM for the second.

First: Cc1[nH]c(=O)c(CNC(=O)c2cc3c(-c4ccc(N)nc4)ccn3c(C(C)N3CCN(CC(F)(F)F)CC3)c2C)c2c1CN(CC(C)C)CC2 (stereo not drawn) [Compound 188, 1-(6-aminopyridin-3-yl)-N-((7-isobutyl-1-methyl-3-oxo-2,3,5,6,7,8-hexahydro-2,7-naphthyridin-4-yl)methyl)-6-methyl-5-(1-(4-(2,2,2-trifluoroethyl)piperazin-1-yl)ethyl)indolizine-7-carboxamide]
Second: COc1cc(C)[nH]c(=O)c1CNC(=O)c1cc2c(-c3cnc(C)nc3)ccn2c(C(C)N2CCN(CC(F)(F)F)CC2)c1C (stereo not drawn) [Compound 196, N-((4-methoxy-6-methyl-2-oxo-1,2-dihydropyridin-3-yl)methyl)-6-methyl-1-(2-methylpyrimidin-5-yl)-5-(1-(4-(2,2,2-trifluoroethyl)piperazin-1-yl)ethyl)indolizine-7-carboxamide]
The IC50 of the first is higher: 100 to 1000 nM for the first, less than 100 nM for the second. The second is the more potent here.

`COc1cc(C)[nH]c(=O)c1CNC(=O)c1cc2c(-c3ccn[nH]3)ccn2c(C(C)OCc2nccs2)c1C` (stereo not drawn) [Compound 191, N-((4-methoxy-6-methyl-2-oxo-1,2-dihydropyridin-3-yl)methyl)-6-methyl-1-(1H-pyrazol-5-yl)-5-(1-(thiazol-2-ylmethoxy)ethyl)indolizine-7-carboxamide] and `CCc1cc(-c2ccn3c(C(C)N4CCN(CC(F)(F)F)CC4)c(C)c(C(=O)NCc4c(OC)cc(C)[nH]c4=O)cc23)ccn1` (stereo not drawn) [Compound 205, 1-(2-ethylpyridin-4-yl)-N-((4-methoxy-6-methyl-2-oxo-1,2-dihydropyridin-3-yl)methyl)-6-methyl-5-(1-(4-(2,2,2-trifluoroethyl)piperazin-1-yl)ethyl)indolizine-7-carboxamide] cannot be ordered by IC50: less than 100 nM for the first, less than 100 nM for the second.

same assay, conditions: read-out: IC50 (EZH2_Y641F); EZH2 Y641F PRC2 complex, HTRF; class symbols

`Cc1cc(C(F)(F)F)c(CNC(=O)c2cc3c(-c4ccc(N)nc4)ccn3c(C(C)N3CCN(CC(F)(F)F)CC3)c2C)c(=O)[nH]1` (stereo not drawn) [Compound 186, 1-(6-aminopyridin-3-yl)-6-methyl-N-((6-methyl-2-oxo-4-(trifluoromethyl)-1,2-dihydropyridine-3-yl)methyl)-5-(1-(4-(2,2,2-trifluoroethyl)piperazin-1-yl)ethyl)indolizine-7-carboxamide] and `COc1cc(C)[nH]c(=O)c1CNC(=O)c1cc2c(-c3ccc(C)nc3)ccn2c(C(C)N2CCN(CC(F)(F)F)CC2)c1C` (stereo not drawn) [Compound 192, N-((4-methoxy-6-methyl-2-oxo-1,2-dihydropyridin-3-yl)methyl)-6-methyl-1-(6-methylpyridin-3-yl)-5-(1-(4-(2,2,2-trifluoroethyl)piperazin-1-yl)ethyl)indolizine-7-carboxamide] cannot be ordered by IC50: less than 100 nM for the first, less than 100 nM for the second.

`COc1c(CNC(=O)c2cc3c(-c4ccc(N)nc4)ccn3c(C(C)N3CCN(CC(F)(F)F)CC3)c2C)c(=O)[nH]n1C` (stereo not drawn) [Compound 187, 1-(6-aminopyridin-3-yl)-N-((5-methoxy-1-methyl-3-oxo-2,3-dihydro-1H-pyrazole-4-yl)methyl)-6-methyl-5-(1-(4-(2,2,2-trifluoroethyl)piperazin-1-yl)ethyl)indolizine-7-carboxamide] and `COc1cc(C)[nH]c(=O)c1CNC(=O)c1cc2c(-c3ccc(C)nn3)ccn2c(C(C)N2CCN(CC(F)(F)F)CC2)c1C` (stereo not drawn) [Compound 199, N-((4-methoxy-6-methyl-2-oxo-1,2-dihydropyridin-3-yl)methyl)-6-methyl-1-(6-methylpyridazin-3-yl)-5-(1-(4-(2,2,2-trifluoroethyl)piperazin-1-yl)ethyl)indolizine-7-carboxamide] cannot be ordered by IC50: less than 100 nM for the first, less than 100 nM for the second.

`Cc1cc(C)c(CNC(=O)c2cc3c(-c4cnn(C5CCOCC5)c4)ccn3c(C(C)N3CCN(CC(F)(F)F)CC3)c2C)c(=O)[nH]1` (stereo not drawn) [Compound 190, N-((4,6-dimethyl-2-oxo-1,2-dihydropyridin-3-yl)methyl)-6-methyl-1-(1-(tetrahydro-2H-pyran-4-yl)-1H-pyrazol-4-yl)-5-(1-(4-(2,2,2-trifluoroethyl)piperazin-1-yl)ethyl)indolizine-7-carb oxamide] and `COc1cc(-c2ccn3c(C(C)N4CCN(CC(F)(F)F)CC4)c(C)c(C(=O)NCc4c(OC)cc(C)[nH]c4=O)cc23)ccn1` (stereo not drawn) [Compound 193, N-((4-methoxy-6-methyl-2-oxo-1,2-dihydropyridin-3-yl)methyl)-1-(2-methoxypyridine-4-yl)-6-methyl-5-(1-(4-(2,2,2-trifluoroethyl)piperazin-1-yl)ethyl)indolizine-7-carboxamide] cannot be ordered by IC50: less than 100 nM for the first, less than 100 nM for the second.

`COc1cc(C)[nH]c(=O)c1CNC(=O)c1cc2c(-c3ccn[nH]3)ccn2c(N(C)C2CCN(CC(F)(F)F)CC2)c1C` [Compound 202, N-((4-methoxy-6-methyl-2-oxo-1,2-dihydropyridin-3-yl)methyl)-6-methyl-5-(methyl(1-(2,2,2-trifluoroethyl)piperidin-4-yl)amino)-1-(1H-pyrazol-5-yl)indolizine-7-carboxamide] and `CCN(c1c(C)c(C(=O)NCc2c(OC)cc(C)[nH]c2=O)cc2c(-c3ccnc(N(C)C)c3)ccn12)C1CCN(CC(F)(F)F)CC1` [Compound 203, 1-(2-(dimethylamino)pyridin-4-yl)-5-(ethyl(1-(2,2,2-trifluoroethyl)piperidin-4-yl)amino)-N-((4-methoxy-6-methyl-2-oxo-1,2-dihydropyridin-3-yl)methyl)-6-methylindolizine-7-carboxamide] cannot be ordered by IC50: less than 100 nM for the first, less than 100 nM for the second.

`CCN(c1c(C)c(C(=O)NCc2c(OC)cc(C)[nH]c2=O)cc2c(-c3ccnc(N(C)C)c3)ncn12)C1CCN(CC(F)(F)F)CC1` [Compound 204, 1-(2-(dimethylamino)pyridin-4-yl)-5-(ethyl(1-(2,2,2-trifluoroethyl)piperidin-4-yl)amino)-N-((4-methoxy-6-methyl-2-oxo-1,2-dihydropyridin-3-yl)methyl)-6-methylimidazo[1,5-a]pyridine-7-carboxamide] and `COc1cc(C)[nH]c(=O)c1CNC(=O)c1cc2c(-c3ccnc(C(C)C)c3)ccn2c(C(C)N2CCN(CC(F)(F)F)CC2)c1C` (stereo not drawn) [Compound 206, 1-(2-isopropylpyridin-4-yl)-N-((4-methoxy-6-methyl-2-oxo-1,2-dihydropyridin-3-yl)methyl)-6-methyl-5-(1-(4-(2,2,2-trifluoroethyl)piperazin-1-yl)ethyl)indolizine-7-carboxamide] cannot be ordered by IC50: less than 100 nM for the first, less than 100 nM for the second.

First: COc1cc(C)[nH]c(=O)c1CNC(=O)c1cc2c(-c3ccnc4c3CCN4)ccn2c(C(C)N2CCN(CC(F)(F)F)CC2)c1C (stereo not drawn) [Compound 207]
Second: Cc1cc(C)c(CNC(=O)c2cc3cccn3c(C(C)OCc3ccccn3)c2C)c(=O)[nH]1 (stereo not drawn) [Example 15, N-((4,6-dimethyl-2-oxo-1,2-dihydropyridin-3-yl)methyl)-6-methyl-5-(1-(pyridine-2-ylmethoxy)ethyl)indolizine-7-carboxamide]
The IC50 of the first is lower: less than 100 nM for the first, 100 to 1000 nM for the second. The first is the more potent here.

First: COC(C)c1c(C)c(C(=O)NCc2c(C)cc(C)[nH]c2=O)cc2cccn12 (stereo not drawn) [Example 1, N-((4,6-Dimethyl-2-oxo-1,2-dihydropyridin-3-yl)methyl)-5-(1-methoxyethyl)-6-methylindolizine-7-carboxamide]
Second: CCOC(C)c1c(C)c(C(=O)NCc2c(C)cc(C)[nH]c2=O)cc2cccn12 (stereo not drawn) [Example 2, N-((4,6-Dimethyl-2-oxo-1,2-dihydropyridin-3-yl)methyl)-5-(1-ethoxyethyl)-6-methylindolizine-7-carboxamide]
The IC50 of the first is lower: 100 to 1000 nM for the first, 1000 to 10000 nM for the second.

`C=CCOC(C)c1c(C)c(C(=O)NCc2c(C)cc(C)[nH]c2=O)cc2cccn12` (stereo not drawn) [Example 3] and `C=C(C)COC(C)c1c(C)c(C(=O)NCc2c(C)cc(C)[nH]c2=O)cc2cccn12` (stereo not drawn) [Example 5, N-((4,6-Dimethyl-2-oxo-1,2-dihydropyridin-3-yl)methyl)-6-methyl-5-(1-((2-methylallyl)oxy)ethyl)indolizine-7-carboxamide] fall in the same range of IC50: 100 to 1000 nM for the first, 100 to 1000 nM for the second.

Compared with `Cc1cc(C)c(CNC(=O)c2cc3cccn3c(C(C)OCC(C)C)c2C)c(=O)[nH]1` (stereo not drawn) [Example 6, N-((4,6-Dimethyl-2-oxo-1,2-dihydropyridin-3-yl)methyl)-5-(1-isobutyloxyethyl)-6-methylindolizine-7-carboxamide], `Cc1cc(C)c(CNC(=O)c2cc3cccn3c(C(C)OCc3ccccc3)c2C)c(=O)[nH]1` (stereo not drawn) [Example 9, 5-(1-(benzyloxy)ethyl)-N-((4,6-dimethyl-2-oxo-1,2-dihydropyridin-3-yl)methyl)-6-methylindolizine-7-carboxamide] is lower in IC50: 1000 to 10000 nM for the first, 100 to 1000 nM for the second.

`Cc1cc(C)c(CNC(=O)c2cc3cccn3c(C(C)OC3C=CCCC3)c2C)c(=O)[nH]1` (stereo not drawn) [Example 7, 5-((cyclohex-2-en-1-yloxy)ethyl)-N-((4,6-dimethyl-2-oxo-1,2-dihydropyridin-3-yl)methyl)-6-methylindolizine-7-carboxamide] and `Cc1cc(C)c(CNC(=O)c2cc3cccn3c(C(C)OC3CCCCC3)c2C)c(=O)[nH]1` (stereo not drawn) [Example 8, 5-(1-(cyclohexyloxy)ethyl)-N-((4,6-dimethyl-2-oxo-1,2-dihydropyridin-3-yl)methyl)-6-methylindolizine-7-carboxamide] fall in the same range of IC50: 100 to 1000 nM for the first, 100 to 1000 nM for the second.

With `Cc1cc(C)c(CNC(=O)c2cc3cccn3c(C(C)OCc3ccncc3)c2C)c(=O)[nH]1` (stereo not drawn) [Example 16, N-((4,6-dimethyl-2-oxo-1,2-dihydropyridin-3-yl)methyl)-6-methyl-5-(1-(pyridine-4-ylmethoxy)ethyl)indolizine-7-carboxamide] the IC50 was 100 to 1000 nM.
